Source: US9273017B2, “(Thio)morpholine derivatives as S1P modulators” (ABBVIE BAHAMAS LIMITED, priority 2009, dated 2016)
Counter-ions that a name gives are not always drawn.

Key:
C57BL/6J mice = test: In vivo therapeutic model; T-maze spontaneous alternation; settings: 12-month old male C57BL6J mice; 10 mg/kg/day p.o. for 21 days and on test day at t=-30 min
Description: FIG. 1 Percentage of alternation of young and old C57BL/6J male mice in the T-maze with either vehicle (control groups) or compound 34b (10 mg/kg; p.o.)
In Vivo Therapeutic Model; T-Maze
Age-related memory deficits occur in humans and rodents. Spontaneous alternation is the innate tendency of rodents to alternate free choices in a T-maze over a series of successive runs. This sequential procedure relies on working memory and is sensitive to various pharmacological manipulations affecting memory processes (Aging and the physiology of spatial memory. Barnes C. A. Neurobiol. Aging 1988:563-8; Dember W N, Fowler H. Spontaneous alternation behavior. Psychol. Bull. 1958, 55(6):412-427; Gerlai R. A new continuous alternation task in T-maze detects hippocampal dysfunction in mice. A strain comparison and lesion study. Behav Brain Res 1998 95(1):91-101).
For this study, male C57BL/6J mice of 2 months or 12 months old were used in the spontaneous alternation task in the T-maze. In short, mice were subjected to 1 session containing 15 trials, consisting of 1 “forced-choice” trial, followed by 14 “free-choice” trials. The animal was considered as entering one of the arms of the maze when all four paws are placed within this arm. […] The percentage of alternation over the 14 free-choice trials was determined for each mouse and was used as an index of working memory performance. […]

human S1P1 = target: T1, human S1P1 (Homo sapiens, UniProt P21453); test: In vitro functional activity (agonism), CHO-K1-human S1P1 cAMP assay; assay type: cell-based; settings: read-out: S1P1 pEC50 (converted)
T1 construct: host or cells: CHO-K1
Description: In Vitro Functional Activity (Agonism) on Human S1P1 Receptors
The CHO-K1-Human S1P1-c-AMP assay was performed at Euroscreenfast, Brussels (Euroscreen, Human S1P1 coupling Gi/o), (Edg1) receptor, catalog no: FAST-0197C, December 2009).
Recombinant CHO-K1 cells expressing human S1P1, grown to mid-log Phase in culture media without antibiotics, detached, centrifuged and re-suspended. For agonist testing cells are mixed with compound and Forskolin and incubated at room temperature. Cells are lyses and cAMP concentration are estimated, according to the manufacturer specification, With the HTRF kit from CIS-BIO International (cat no 62AM2PEB).
Agonistic effects of compounds are expressed as a percentage of the activity of the reference compound at its EC100 concentration, EC50) is calculated and results are reported as pEC50. Compounds were tested at a 10 points half log concentration range duplicated in 1 experiment.

human S1P5 receptor = target: T2, human S1P5 receptor (Homo sapiens, UniProt Q9H228); test: In vitro functional activity (agonism), CHO-human-S1P5-Aequorin assay; assay type: cell-based; settings: read-out: S1P5 pEC50 (converted)
T2 construct: host or cells: CHO (AequoScreen recombinant cell line, co-expressing mitochondrially targeted apo-aequorin)
Text: In Vitro Functional Activity (Agonism) on Human S1P5 Receptors
(§1) The CHO-human-S1P5-Aeqorin assay was bought from Euroscreen, Brussels (Euroscreen, Technical dossier, Human Lysophospholid S1P5 (Edg8) receptor, DNA clone and CHO AequoScreen™ recombinant cell-line, catalog no: ES-593-A, September 2006). Human-S1P5-Aequorin cells express mitochondrial targeted apo-Aequorin. Cells have to be loaded with coelanterazine, in order to reconstitute active Aequorin. After binding of agonists to the human S1P5 receptor the intracellular calcium concentration increases and binding of calcium to the apo-Aequorin/coelenterazine complex leads to an oxidation reaction of coelenterazine, which results in the production of apo-Aequorin, coelenteramide, CO2 and light (λmax 469 nm). This luminescent response is dependent on the agonist concentration. Luminescence is measured using the MicroBeta Jet (Perkin Elmer). Agonistic effects of compounds are expressed as pEC50. Compounds were tested at a 10 points half log concentration range, and 3 independent experiments were performed in single point's measurements.

human S1P3 receptor = target: T3, human S1P3 receptor (Homo sapiens, UniProt Q99500); test: In vitro functional activity (agonism), CHO-human-S1P3-Aequorin assay; assay type: cell-based; settings: read-out: S1P3 pEC50 (converted)
T3 construct: cell line established at Solvay Pharmaceuticals; host or cells: CHO K1 (CHO/Gα16/AEQ/h-S1P3)
Text: In Vitro Functional Activity (Agonism) on Human S1P3 Receptors
The CHO-human-S1P3-Aeqorin assay (CHO/Gα16/AEQ/h-S1P3) was established at Solvay Pharmaceuticals. The plasmid DNA coding for the S1P3 receptor (accession number in GenBank NM_005226 was purchased from UMR cDNA resource Centre (Rolla, Mo.). The pcDNA3.1/hS1P3 construct carrying the mitochondrially targeted apo-Aeqorin and Gα16 protein was transfected in CHO K1 cell-line.
as §1, with “Human-S1P3-Aequorin” for “The CHO-human-S1P5-Aeqorin assay was bought from Euroscreen, Brussels (Euroscreen, Technical dossier, Human Lysophospholid S1P5 (Edg8) receptor, DNA clone and CHO AequoScreen™ recombinant cell-line, catalog no: ES-593-A, September 2006). Human-S1P5-Aequorin”, “S1P3” for “S1P5”

T2 sequence (Q9H228 whole entry): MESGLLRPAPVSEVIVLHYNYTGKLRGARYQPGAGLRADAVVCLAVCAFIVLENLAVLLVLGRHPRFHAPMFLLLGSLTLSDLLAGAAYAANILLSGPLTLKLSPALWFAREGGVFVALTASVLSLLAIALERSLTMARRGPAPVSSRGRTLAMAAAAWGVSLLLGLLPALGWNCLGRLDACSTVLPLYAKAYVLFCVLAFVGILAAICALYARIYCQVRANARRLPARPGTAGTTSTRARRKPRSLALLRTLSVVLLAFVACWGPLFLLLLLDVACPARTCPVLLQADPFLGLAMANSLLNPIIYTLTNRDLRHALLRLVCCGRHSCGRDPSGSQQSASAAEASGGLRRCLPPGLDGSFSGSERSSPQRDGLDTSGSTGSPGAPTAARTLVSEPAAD
T1 sequence (P21453 whole entry): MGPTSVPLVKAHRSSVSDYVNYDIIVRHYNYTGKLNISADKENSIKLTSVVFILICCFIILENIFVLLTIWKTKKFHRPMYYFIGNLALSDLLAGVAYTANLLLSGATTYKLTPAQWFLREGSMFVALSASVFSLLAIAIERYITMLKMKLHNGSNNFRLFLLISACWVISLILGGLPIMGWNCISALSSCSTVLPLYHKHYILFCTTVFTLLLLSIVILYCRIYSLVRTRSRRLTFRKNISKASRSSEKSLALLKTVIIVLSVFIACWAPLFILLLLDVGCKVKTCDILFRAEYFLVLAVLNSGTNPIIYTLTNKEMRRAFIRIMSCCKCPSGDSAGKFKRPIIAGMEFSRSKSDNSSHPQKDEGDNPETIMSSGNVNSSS
T3 sequence (Q99500 whole entry): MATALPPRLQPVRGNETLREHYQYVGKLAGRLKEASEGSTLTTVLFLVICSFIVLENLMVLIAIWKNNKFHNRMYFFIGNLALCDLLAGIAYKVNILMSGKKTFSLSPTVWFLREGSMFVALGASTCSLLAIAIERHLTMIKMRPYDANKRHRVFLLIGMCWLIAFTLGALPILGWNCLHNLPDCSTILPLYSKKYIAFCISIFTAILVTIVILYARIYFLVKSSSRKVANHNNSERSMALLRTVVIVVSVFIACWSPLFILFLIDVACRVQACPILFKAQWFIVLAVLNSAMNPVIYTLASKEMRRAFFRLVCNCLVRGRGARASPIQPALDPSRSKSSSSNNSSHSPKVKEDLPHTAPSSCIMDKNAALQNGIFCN

| Structure (SMILES) | EC50 (human S1P1) [µM] | EC50 (human S1P5 receptor) [µM] | melting point [°C] | EC50 (human S1P3 receptor) [µM] | reversal of the age-related cognitive decline (percentage of alternation in T-maze) (C57BL/6J mice) [%] |
| --- | --- | --- | --- | --- | --- |
| CCCCCCCCOc1ccc(C2CN(CCC(=O)O)CCO2)c(C(F)(F)F)c1.Cl (centres unmarked) [Compound 189, 3-[2-(4-Octyloxy-2-trifluoromethyl-phenyl)-morpholin-4-yl]-propionic acid hydrochloride] | 1.58 | 0.158 | 178.5 to 180.5 | 1.58 | – |
| Clc1cccc(Cl)c1COc1ccc(C2CN(CCc3nn[nH]n3)CCO2)cc1 (centres unmarked) [Compound 228, 2-[4-(2,6-Dichloro-benzyloxy)-phenyl]-4-[2-(2H-tetrazol-5-yl)-ethyl]-morpholine hydrochloride] | > 3.16 | 0.158 | – | > 10 | – |
| CCCCCCCCOc1ccc(C2CN(CCC(=O)O)CCO2)cc1 (centres unmarked) [Compound 41, 3-(2-(4-Octyloxy-phenyl)-morpholin-4-yl)-propionic acid hydro-chloride] | > 3.16 | 0.251 | – | 2.51 | – |
| Cc1cccc2c1C(Oc1ccc(C3CN(CCC(=O)O)CCO3)cc1)CC2 (centres unmarked) [Compound 220, 3-{2-[4-(7-Methyl-indan-1-yloxy)-phenyl]-morpholin-4-yl}-propionic acid] | – | 0.158 | 134 to 139 | 0.251 | – |
| CCCCCCCCOc1cccc(C2CN(CCC(=O)O)CCO2)c1.Cl (centres unmarked) [Compound 231, 3-[2-(3-Octyloxy-phenyl)-morpholin-4-yl]-propionic acid hydrochloride] | – | 0.251 | 218 to 220 | > 10 | – |

The next lines start with results.

| EC50 (human S1P1) [µM] | EC50 (human S1P5 receptor) [µM] | melting point [°C] | EC50 (human S1P3 receptor) [µM] | Structure (SMILES) | reversal of the age-related cognitive decline (percentage of alternation in T-maze) (C57BL/6J mice) [%] |
| --- | --- | --- | --- | --- | --- |
| > 3.16 | 0.0316 | – | – | Cl.O=C(O)CCN1CCOC(c2ccc(OCc3c(Cl)cccc3Cl)cc2)C1 (single isomer, unassigned; (-)) [Compound 34b, (−)-3-{2-[4-(2,6-Dichloro-benzyloxy)-phenyl]-morpholin-4-yl}-propionic acid hydrochloride] | 100 |
| – | 0.631 | 170 to 172 | > 10 | COc1cc(C2CN(CCC(=O)O)CCO2)ccc1OCc1ccccc1C(F)(F)F.Cl (centres unmarked) [Compound 66, 3-{2-[3-Methoxy-4-(2-trifluoromethyl-benzyloxy)-phenyl]-morpholin-4-yl}-propionic acid hydrochloride] | – |
| > 3.16 | 0.0794 | – | > 31.6 | Cc1cc(OCc2c(Cl)cccc2Cl)ccc1C1CN(CCC(=O)O)CCO1 (centres unmarked) [Compound 130, 3-{2-[4-(2,6-Dichloro-benzyloxy)-2-methyl-phenyl]-morpholin-4-yl}-propionic acid trifluoroacetic acid salt] | – |
| > 3.16 | 0.126 | 174.5 to 178 | > 10 | Cl.O=C(O)CCN1CCOC(c2ccc(OCc3c(Cl)cccc3Cl)cc2F)C1 (centres unmarked) [Compound 179, 3-{2-[4-(2,6-Dichloro-benzyloxy)-2-fluoro-phenyl]-morpholin-4-yl}-propionic acid hydrochloride] | – |
| > 3.16 | 0.1 | – | > 10 | O=C(O)CCN1CCOC(c2ccc(OCc3c(Cl)cccc3C(F)(F)F)cc2)C1 (centres unmarked) [Compound 153, 3-{2-[4-(2-Chloro-6-trifluoromethyl-benzyloxy)-phenyl]-morpholin-4-yl}-propionic acid hydrochloride] | – |
